Patent US20200337992A1, “Auricular Cleaning Composition” (priority 2015, published 2020)

Experiment: In vitro cerumenolytic effect test on synthetic cerumen
Conditions: for % of cerumen removed: Table 3, total after four successive applications; for cerumenolytic activity / cerumenolytic effect: cf. FIG. 1, in vitro test
Protocol: Thus, the selected formula of the synthetic cerumen which makes it possible to evaluate the in vitro cerumenolytic effect of agents is the following: [table] In order to select a new combination of cerumenolytic agents, the cerumenolytic effect test was employed using the cerumen described in the table above. […] The distribution is carried out in such a way that the cerumen is present only in the bottom of the tube and not on the edges or the opening, which could distort the results. The tubes are then left to stand for the amount of time required for the cerumen to solidify. The distribution is carried out the day before the in vitro test in order to leave the cerumen with a minimum of 24 h to cool and solidify. The dimensions of the test tube, the temperature at which the test was carried out and the amount of synthetic cerumen were chosen to represent as faithfully as possible, in vitro, the dog ear canal. According to these parameters, the procedure followed for measuring the in vitro effectiveness of an agent or of a combination of agents having a cerumenolytic effect is the following: =>The test tube containing only the cerumen is weighed before the test. […] =>The test tube is then attached to a stirring turbine and immersed in a bath of water heated to 35° C. (the water height is sufficient for the content of the tube (cerumen+test product) to be immersed. =>The stirring is maintained for 20 minutes at 50 rpm. […] This step makes it possible to remove the product and the cerumen debris detached by the cerumenolytic agent. =>At the end of the time elapsed, the tube is weighed to evaluate the amount of cerumen removed. =>This process is carried out four times in a row, on each same tube, in order to simulate and evaluate the application number required to remove the cerumen plug present in the dog ear canal. Each time, the cerumen remaining at the bottom of the tube is dried and then weighed. […] As previously indicated, in order to check the effectiveness of an agent, the test tubes are weighed before the test is carried out and after the phase of leaving to stand upside down for 1 h. The removal of the cerumen is, according to this process, evaluated as for this example: =>Weight of the tube A before test 1: 3.493 g and weight of the tube A after test 1: 3.449 g =>Percentage of cerumen removed: […] The percentages are thus calculated for each test: from 1 to 4. The total percentage of cerumen removed is obtained after having repeated the operation successively four times for one and the same tube.

[1] = 500 mg synthetic cerumen, 2 ml test product, 35° C., 20 minutes at 50 rpm

With `CCOCCOCCO` [100% Transcutol ®, 2-(2-ethoxyethoxy)ethanol] the “% of cerumen removed” value [1] was 100%, the “% cerumen removed (after test 4)” value (Table 4, 500 mg synthetic cerumen, 2 ml test product, 35° C., 20 minutes at 50 rpm, after test 4) was 100.0% and the “cerumenolytic activity / cerumenolytic effect” value was roughly 100%.
In the case of `CC(C)O` [100% Isopropyl alcohol, isopropyl alcohol], the “% of cerumen removed” value [1] is reported as 66% and the “cerumenolytic activity / cerumenolytic effect” value is reported as “about 60%”.
